{"source": "patent US8741897B2", "about": "“Glucocorticoid mimetics, methods of making them, pharmaceutical compositions and uses thereof” (Boehringer Ingelheim Pharmaceuticals Inc., priority 2003, dated 2014)"}
{"test_system": "glucocorticoid receptor function", "assay": "one or more of the above assays (GR binding and glucocorticoid receptor cell assays: aromatase, IL-6, TAT, MMTV-Luc, IL-8, ICAM-Luc)", "type": "cell-based", "settings": "assay not specified per compound", "procedure": "B. Glucocorticoid Receptor Cell Assays\n1. Induction of Aromatase in Fibroblasts (Cell Assay for Transactivation)\nDexamethasone, a synthetic ligand to the glucocorticoid receptor (GR), induces expression of aromatase in human foreskin fibroblast cells. The activity of aromatase is measured by the conversion of testosterone to estradiol in culture media.\nOn the day of the experiment, the media in the wells is replaced with fresh media. Cells are treated with test compounds to final concentrations of 10^−5 M to 10^−8 M, and testosterone to a final concentration of 300 ng/mL. Each well has a total volume of 100 μL. Samples are made in duplicates. Control wells include: (a) wells that receive testosterone only, and (b) wells that receive testosterone plus 2 μM of dexamethasone to provide maximum induction of aromatase. Plates are incubated at 37° C. overnight (15 to 18 hours), and supernatants are harvested at the end of incubation. […] The amount of estradiol is inversely proportional to the ELISA signals in each well. The extent of aromatase induction by test compounds is expressed as a relative percentage to dexamethasone. EC50 values of test compounds are derived by non-linear curve fitting.\n2. Inhibition of IL-6 Production in Fibroblasts (Cell Assay for Transrepression)\nHuman foreskin fibroblast cells produce IL-6 in response to stimulation by proinflammatory cytokine IL-1.\nOn the next day, media in the wells is replaced with fresh media. Cells are treated with IL-1 (rhIL-1α, R&D Systems Cat. No. 200-LA) to a final concentration of 1 ng/mL, and with test compounds to final concentrations of 10^−5 M to 10^−8 M, in a total volume of 200 μL per well. Samples are done in duplicates. […] Positive control wells receive IL-1 only and represent maximum (or 100%) amount of IL-6 production. Plates are incubated at 37° C. overnight (15 to 18 hours), and supernatants are harvested at the end of incubation. IL-6 levels in the supernatants are determined by the ELISA kits for IL-6 (MedSystems Diagnostics GmbH, Vienna, Austria, Cat. No. BMS213TEN) according to manufacture's instructions. The extent of inhibition of IL-6 by test compounds is expressed in percentage relative to positive controls. IC50 values of test compounds are derived by non-linear curve fitting.\nEvaluation of agonist or antagonist activity of compounds binding to the glucocorticoid receptor may be determined by any of the assays.\n3. Modulation of Tyrosine Aminotransferase (TAT) Induction in Rat Hepatoma Cells\nTesting of compounds for agonist or antagonist activity in induction of tyrosine aminotransferase (TAT) in rat hepatoma cells.\nH4-II-E-C3 cells were incubated overnight in 96 well plates (20,000 cells/100 μL/well) in MEM medium containing 10% heat inactivated FBS and 1% nonessential amino acids. On the next day, cells were stimulated with the indicated concentrations of dexamethasone or test compound (dissolved in DMSO, final DMSO concentration 0.2%) for 18 hours. Control cells were treated with 0.2% DMSO. After 18 hours, the cells were lysed in a buffer containing 0.1% Triton X-100 and the TAT activity was measured in a photometric assay using tyrosine and alpha-ketoglutarate as substrates.\nFor measuring antagonist activity, the hepatoma cells were pre-stimulated by addition of dexamethasone (concentration ranges from 3×10^−9 M to 3×10^−8 M) shortly before the test compound was applied to the cells.\n4. Modulation of MMTV-Luc Induction in HeLa Cells\nTesting of compounds for agonist or antagonist activity in stimulation of MMTV-(mouse mammary tumor virus) promoter in HeLa cells.\nCells were cultured overnight in DMEM medium without phenol red, supplemented with 3% CCS (charcoal treated calf serum) and then transferred to 96 well plates (15,000 cells/100 μL/well)."}
{"smiles": "CC(C)c1ncc2[nH]c(CC(O)(CC(C)(C)c3cc(Cl)cc4c3OCC4)C(F)(F)F)cc2n1", "note": "(centres unmarked) [4-(5-Chloro-2,3-dihydrobenzofuran-7-yl)-1,1,1-trifluoro-2-(2-isopropyl-5H-pyrrolo[3,2-d]pyrimidin-6-ylmethyl)-4-methylpentan-2-ol]", "activity as agonists of the glucocorticoid receptor function in one or more of the above assays": "potent agonists"}
{"smiles": "COc1ccc(F)cc1C(C)(C)CC(O)(Cc1cc2ccncc2[nH]1)C(C)(C)C", "note": "(centres unmarked) [5-(5-Fluoro-2-methoxyphenyl)-2,2,5-trimethyl-3-(1H-pyrrolo[2,3-c]pyridin-2-ylmethyl)hexan-3-ol]", "activity as agonists of the glucocorticoid receptor function in one or more of the above assays": "agonists"}
{"smiles": "CN(C)Cc1c(CC(O)(CC(C)(C)c2cc(F)ccc2O)C(F)(F)F)[nH]c2ccncc12", "note": "(centres unmarked)", "activity as agonists of the glucocorticoid receptor function in one or more of the above assays": "potent agonists"}
{"smiles": "CC(C)(CC(O)(Cc1cc2cc(N3CCOCC3)ncc2[nH]1)C(F)(F)F)c1cccc(CN2CCOCC2)c1", "note": "(centres unmarked) [1,1,1-Trifluoro-4-methyl-4-(3-morpholin-4-ylmethylphenyl)-2-(5-morpholin-4-yl-1H-pyrrolo[2,3-c]pyridin-2-ylmethyl)pentan-2-ol]", "activity as agonists of the glucocorticoid receptor function in one or more of the above assays": "potent agonists"}
{"smiles": "COc1ccc(-c2cccnc2)cc1C(C)(C)CC(O)(Cc1[nH]c2cnccc2c1C)C(F)(F)F", "note": "(centres unmarked) [1,1,1-Trifluoro-4-(2-methoxy-5-pyridin-3-ylphenyl)-4-methyl-2-(3-methyl-1H-pyrrolo[2,3-c]pyridin-2-ylmethyl)pentan-2-ol]", "activity as agonists of the glucocorticoid receptor function in one or more of the above assays": "potent agonists"}
{"smiles": "CC(C)(CC(O)(Cc1cc2cnccc2[nH]1)C1CC1)c1cc(Cl)cc2c1OCC2", "note": "(centres unmarked) [4-(5-Chloro-2,3-dihydrobenzofuran-7-yl)-2-cyclopropyl-4-methyl-1-(1H-pyrrolo[3,2-c]pyridin-2-yl)pentan-2-ol]", "activity as agonists of the glucocorticoid receptor function in one or more of the above assays": "agonists"}
{"smiles": "COc1ccc(-c2cccnc2)cc1C(C)(C)CC(O)(Cc1cc2cnccc2[nH]1)C(F)(F)F", "note": "(centres unmarked) [1,1,1-Trifluoro-4-(2-methoxy-5-pyridin-3-ylphenyl)-4-methyl-2-(1H-pyrrolo[3,2-c]pyridin-2-ylmethyl)pentan-2-ol]", "activity as agonists of the glucocorticoid receptor function in one or more of the above assays": "potent agonists"}
{"smiles": "Cc1ccc(F)cc1C(C)(C)CC(O)(Cc1cc2c(C)nccc2[nH]1)C(F)(F)F", "note": "(centres unmarked) [1,1,1-Trifluoro-4-(5-fluoro-2-methylphenyl)-4-methyl-2-(4-methyl-1H-pyrrolo[3,2-c]pyridin-2-ylmethyl)pentan-2-ol]", "activity as agonists of the glucocorticoid receptor function in one or more of the above assays": "potent agonists"}
{"smiles": "Cc1ccc(F)cc1C(C)(C)CC(O)(Cc1cc2nc(-c3ccccc3)ncc2[nH]1)C(F)(F)F", "note": "(centres unmarked) [1,1,1-Trifluoro-4-(5-fluoro-2-methylphenyl)-4-methyl-2-(2-phenyl-5H-pyrrolo[3,2-d]pyrimidin-6-ylmethyl)pentan-2-ol]", "activity as agonists of the glucocorticoid receptor function in one or more of the above assays": "potent agonists"}
{"smiles": "Cc1nc(C#N)cc2[nH]c(CC(O)(CC(C)(C)c3cc(S(C)(=O)=O)cc4c3OCC4)C(F)(F)F)cc12", "note": "(centres unmarked) [2-[2-Hydroxy-4-(5-methanesulfonyl-2,3-dihydrobenzofuran-7-yl)-4-methyl-2-trifluoromethylpentyl]-4-methyl-1H-pyrrolo[3,2-c]pyridine-6-carbonitrile]", "activity as agonists of the glucocorticoid receptor function in one or more of the above assays": "potent agonists"}
{"smiles": "CC(C)(CC(O)(Cn1ccc2c1CCCC2=O)C(F)(F)F)c1cc(-c2cncnc2)cc2c1OCC2", "note": "(centres unmarked) [1-[2-Hydroxy-4-methyl-4-(5-pyrimidin-5-yl-2,3-dihydrobenzofuran-7-yl)-2-trifluoromethylpentyl]-1,5,6,7-tetrahydroindol-4-one]", "activity as agonists of the glucocorticoid receptor function in one or more of the above assays": "agonists"}
{"smiles": "COc1ccc(F)cc1C(C)(C)CC(O)(Cc1cc2nc(-c3ccccc3)ncc2[nH]1)C(F)(F)F", "note": "(centres unmarked) [1,1,1-Trifluoro-4-(5-fluoro-2-methoxyphenyl)-4-methyl-2-(2-phenyl-5H-pyrrolo[3,2-d]pyrimidin-6-ylmethyl)pentan-2-ol]", "activity as agonists of the glucocorticoid receptor function in one or more of the above assays": "potent agonists"}
{"smiles": "Cc1c(CC(O)(CC(C)(C)c2cccc(F)c2)C(F)(F)F)[nH]c2cnccc12", "note": "(centres unmarked) [1,1,1-Trifluoro-4-(3-fluorophenyl)-4-methyl-2-(3-methyl-1H-pyrrolo[2,3-c]pyridin-2-ylmethyl)pentan-2-ol]", "activity as agonists of the glucocorticoid receptor function in one or more of the above assays": "potent agonists"}
{"smiles": "Cc1ccc(F)cc1C(C)(C)CC(O)(Cc1cc2cnccc2[nH]1)C(C)(C)C", "note": "(centres unmarked) [5-(5-Fluoro-2-methylphenyl)-2,2,5-trimethyl-3-(1H-pyrrolo[3,2-c]pyridin-2-ylmethyl)hexan-3-ol]", "activity as agonists of the glucocorticoid receptor function in one or more of the above assays": "agonists"}
{"smiles": "CCc1cccc2[nH]c(CC(O)(CC(C)(C)c3cc(F)ccc3OC)C(F)(F)F)cc12", "note": "(centres unmarked) [2-(4-Ethyl-1H-indol-2-ylmethyl)-1,1,1-trifluoro-4-(5-fluoro-2-methoxyphenyl)-4-methylpentan-2-ol]", "activity as agonists of the glucocorticoid receptor function in one or more of the above assays": "potent agonists"}
{"smiles": "CC(C)(CC(O)(Cc1cc2nc(C(N)=O)ccc2[nH]1)C(F)(F)F)c1cc(Cl)cc2c1OCC2", "note": "(centres unmarked) [2-[4-(5-Chloro-2,3-dihydrobenzofuran-7-yl)-2-hydroxy-4-methyl-2-trifluoromethylpentyl]-1H-pyrrolo[3,2-b]pyridine-5-carboxylic acid amide]", "activity as agonists of the glucocorticoid receptor function in one or more of the above assays": "potent agonists"}
{"smiles": "CC(C)(CC(O)(Cc1cc2cnccc2[nH]1)C(F)F)c1cc(F)ccc1O", "note": "(centres unmarked) [2-[4,4-Difluoro-3-hydroxy-1,1-dimethyl-3-(1H-pyrrolo[3,2-c]pyridin-2-ylmethyl)butyl]-4-fluorophenol]", "activity as agonists of the glucocorticoid receptor function in one or more of the above assays": "agonists"}
{"smiles": "COc1ccc(-c2ccsc2)cc1C(C)(C)CC(O)(Cc1cc2ccncc2[nH]1)C(F)(F)F", "note": "(centres unmarked) [1,1,1-Trifluoro-4-(2-methoxy-5-thiophen-3-ylphenyl)-4-methyl-2-(1H-pyrrolo[2,3-c]pyridin-2-ylmethyl)pentan-2-ol]", "activity as agonists of the glucocorticoid receptor function in one or more of the above assays": "potent agonists"}
{"smiles": "Cc1cc(C#N)cc2[nH]c(CC(O)(CC(C)(C)c3cc(S(C)(=O)=O)cc4c3OCC4)C(F)F)cc12", "note": "(centres unmarked) [2-[2-Difluoromethyl-2-hydroxy-4-(5-methanesulfonyl-2,3-dihydrobenzofuran-7-yl)-4-methylpentyl]-4-methyl-1H-indole-6-carbonitrile]", "activity as agonists of the glucocorticoid receptor function in one or more of the above assays": "agonists"}
{"smiles": "COc1ccc(F)cc1C(C)(C)CC(O)(Cc1cc2cc(N(C)C)ncc2[nH]1)C(F)(F)F", "note": "(centres unmarked) [2-(5-Dimethylamino-1H-pyrrolo[2,3-c]pyridin-2-ylmethyl)-1,1,1-trifluoro-4-(5-fluoro-2-methoxyphenyl)-4-methylpentan-2-ol]", "activity as agonists of the glucocorticoid receptor function in one or more of the above assays": "potent agonists"}
{"smiles": "Cc1ccc(F)cc1C(C)(C)CC(O)(Cc1cc2[nH]c(=O)ccc2[nH]1)C(F)(F)F", "note": "(centres unmarked) [2-[4-(5-Fluoro-2-methylphenyl)-2-hydroxy-4-methyl-2-trifluoromethylpentyl]-1,4-dihydropyrrolo[3,2-b]pyridin-5-one]", "activity as agonists of the glucocorticoid receptor function in one or more of the above assays": "potent agonists"}
{"smiles": "COc1ccc(Br)cc1C(C)(C)CC(O)(Cc1cc2cc(N3CCOCC3)ncc2[nH]1)C(F)(F)F", "note": "(centres unmarked) [4-(5-Bromo-2-methoxyphenyl)-1,1,1-trifluoro-4-methyl-2-(5-morpholin-4-yl-1H-pyrrolo[2,3-c]pyridin-2-ylmethyl)pentan-2-ol]", "activity as agonists of the glucocorticoid receptor function in one or more of the above assays": "potent agonists"}
{"smiles": "COc1ccc(Br)cc1C(C)(C)CC(O)(Cc1cc2cc(N3CCCCC3)ncc2[nH]1)C(F)(F)F", "note": "(centres unmarked) [4-(5-Bromo-2-methoxyphenyl)-1,1,1-trifluoro-4-methyl-2-(5-piperidin-1-yl-1H-pyrrolo[2,3-c]pyridin-2-ylmethyl)pentan-2-ol]", "activity as agonists of the glucocorticoid receptor function in one or more of the above assays": "potent agonists"}
